Literature values in EP0986632B1, “DELIVERY SYSTEMS” (THE PROCTER & GAMBLE COMPANY, priority 1997, dated 1998).

details: 25°C; from M. L. Tobe, Adv. Inorg Bioinorg. Mech. (1983), 2, Table 1 at page 17

Molecule	base hydrolysis rates (kOH) [M⁻¹ s⁻¹]
N#CS [NCS^-]	0.0005
oxalate	0.00025
O=CO [formate]	0.00058
CC(=O)O [acetate]	0.00096
